Test results as given in US8586611B2 (priority 2005, dated 2013).

Legend:
Format in all cases: in vivo
[1] = test system: Pseudoperonospora cubensis; assay: Test A: cucumber downy mildew, spray the day before inoculation (disease rating, 100 = 100% disease control)
Method in brief: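 Cucumber seedlings were sprayed to run-off with compound suspended in acetone/water containing 250 ppm Trem 014 (200 ppm equated to 500 g/ha), then inoculated with P. cubensis spores the next day. Plants were kept 24 h at 20 °C in saturated humidity, then 6 days at 20 °C, before disease rating relative to controls.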

Plasmopara viticola = assay: Test B: grape downy mildew, spray 24 h after inoculation (disease rating, 100 = 100% disease control)
Method in brief: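 This is a curative spray test, applied 24 h after inoculation. Compounds in 50/50 acetone–water with 250 ppm Trem 014 surfactant were sprayed to run-off on P. viticola-infected seedlings, with 200 ppm equating to 500 g/ha. Plants were kept 5 days in a 20 °C growth chamber, then 24 h humid, and scored 0–100 for disease control relative to controls.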

Phytophthora infestans = assay: whole plant or invertebrate; conditions: tomato late blight
[2] = test system: Erysiphe graminis f. sp. tritici; assay: Test E: wheat powdery mildew, spray the day before inoculation (disease rating, 100 = 100% disease control)
Method in brief: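 Protective test: spores of E. graminis f. sp. tritici dusted on wheat seedlings one day after run-off spraying of test suspension (acetone/water with 250 ppm surfactant; 200 ppm = 500 g/ha). Ratings after 7 days in growth chamber at 20° C, 100 = full control, 0 = none, relative to controls.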

[3] = test system: Pseudoperonospora cubensis; assay: Test F: cucumber downy mildew, DMSO/acetone/water test suspension, spray the day before inoculation (disease rating, 100 = 100% disease control)
Method in brief: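 Cucumber seedlings inoculated with spores one day after spraying with the test suspension (4% DMSO in acetone/water 30/70; 250 ppm ≈ 250 g/ha). Kept 24 h in saturated air, then 6 days in a growth chamber, both at 20° C. Scored as % disease control versus untreated (100 = full control).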

[4] = spray the day before inoculation, compounds without asterisk (not 40 or 10 ppm)
[5] = spray 24 h after inoculation, compounds without asterisk (not 40 or 10 ppm)
[6] = DMSO/acetone/water suspension, spray the day before inoculation, compounds without asterisk
[7] = sprayed the day before inoculation, unmarked compounds (no asterisk, not 40 or 10 ppm)
[8] = sprayed 24 h after inoculation, unmarked compounds (no asterisk, not 40 or 10 ppm)
[9] = sprayed the day before inoculation, 7 days at 20° C., unmarked compounds (no asterisk, not 40 or 10 ppm)
[10] = DMSO/acetone/water test suspension, sprayed the day before inoculation, unmarked compounds (no asterisk)

Row | Molecule | Test A disease rating (100 = 100% disease control, 0 = no disease control) [1, 4] [%] | Test B disease rating (100 = 100% disease control, 0 = no disease control) (Plasmopara viticola; [5]) [%] | Test C disease rating (100 = 100% disease control, 0 = no disease control) (Phytophthora infestans; [4]) [%] | Test E disease rating (100 = 100% disease control, 0 = no disease control) [2, 4] [%] | Test F disease rating (100 = 100% disease control, 0 = no disease control) [3, 6] [%] | Test A disease rating (100 = 100% disease control, 0 = no disease control) [1, 7] | Test B disease rating (100 = 100% disease control, 0 = no disease control) (Plasmopara viticola; [8]) | Test C disease rating (100 = 100% disease control, 0 = no disease control) (Phytophthora infestans; [7]) | Test E disease rating (100 = 100% disease control, 0 = no disease control) [2, 9] | Test F disease rating (100 = 100% disease control, 0 = no disease control) [3, 10]
1 | CN(CCc1ccccc1)C(=O)c1csc(C2CCN(C(=O)Cc3ccccc3Cl)CC2)n1 [compound 162] | 0 | 14 | 15 | 42 | 43 | – | – | – | – | –
2 | CC(C)(NC(=O)c1csc(C2CCN(C(=O)Cc3ccccc3Cl)CC2)n1)c1ccccc1 [compound 263] | – | – | – | – | – | 92 | 0 | 15 | 0 | 0
3 | O=C(NCCc1ccccc1)c1csc(C2CCN(C(=O)Cc3ccccc3Cl)CC2)n1 [compound 264] | – | – | – | – | – | 96 | 20 | 0 | 68 | 93
4 | O=C(NC1CCCc2ccccc21)c1csc(C2CCN(C(=O)Cc3ccccc3Cl)CC2)n1 (centres unmarked) [compound 266] | – | – | – | – | – | 100 | 6 | 57 | 42 | 86
5 | N#CC(NC(=O)c1csc(C2CCN(C(=O)Cc3cccc(Br)c3)CC2)n1)c1ccccc1 (centres unmarked) [compound 282] | – | – | – | – | – | 55 | 8 | 0 | 0 | 39
6 | N-(2,3-dihydro-2,2-dimethyl-1H-inden-1-yl)-N-methyl-2-[1-[[5-methyl-3-(trifluoromethyl)-1H-pyrazol-1-yl]acetyl]-4-piperidinyl]-4-thiazolecarboxamide [Compound 222] | 100 | 99 | 99 | 21 | 100 | – | – | – | – | –
7 | N-(2,3-dihydro-2-methyl-1H-inden-1-yl)-N-methyl-2-[1-[[5-methyl-3-(trifluoromethyl)-1H-pyrazol-1-yl]acetyl]-4-piperidinyl]-4-thiazolecarboxamide [Compound 226] | 100 | 0 | 93 | 0 | 99 | – | – | – | – | –
8 | N-methyl-1-[1-[[5-methyl-3-(trifluoromethyl)-1H-pyrazol-1-yl]acetyl]-4-piperidinyl]-N-[(1R)-1,2,3,4-tetrahydro-1-naphthalenyl]-1H-pyrazole-3-carboxamide [Compound 231] | 100 | 80 | 100 | 0 | 96 | – | – | – | – | –
9 | N-methyl-2-[1-[[5-methyl-3-(trifluoromethyl)-1H-pyrazol-1-yl]acetyl]-4-piperidinyl]-N-(1,2,3,4-tetrahydro-4-oxo-1-naphthalenyl)-4-thiazolecarboxamide [Compound 211] | 100 | 8 | 99 | 0 | 92 | – | – | – | – | –
10 | N-methyl-2-[1-[[5-methyl-3-(trifluoromethyl)-1H-pyrazol-1-yl]acetyl]-4-piperidinyl]-N-[(1R)-1,2,3,4-tetrahydro-1-naphthalenyl]-2H-1,2,3-triazole-4-carboxamide [Compound 232] | 87 | 0 | 95 | 0 | 93 | – | – | – | – | –
11 | N-methyl-2-[1-[[5-methyl-3-(trifluoromethyl)-1H-pyrazol-1-yl]acetyl]-4-piperidinyl]-N-[(1R)-1,2,3,4-tetrahydro-1-naphthalenyl]-4-oxazolecarboxamide [Compound 151] | 99 | 31 | 29 | 0 | 93 | – | – | – | – | –
12 | N-methyl-2-[1-[[5-methyl-3-(trifluoromethyl)-1H-pyrazol-1-yl]acetyl]-4-piperidinyl]-N-[(1R)-1,2,3,4-tetrahydro-1-naphthalenyl]-4-thiazolecarbothioamide [Compound 289] | 100 | 33 | 98 | 0 | 47 | – | – | – | – | –
13 | N-methyl-2-[1-[[5-methyl-3-(trifluoromethyl)-1H-pyrazol-1-yl]acetyl]-4-piperidinyl]-N-[(1R)-1-phenylpropyl]-4-thiazolecarboxamide [Compound 117] | 100 | 67 | 96 | 50 | 86 | – | – | – | – | –
